In US12448363B2, “Kinase inhibitors” (Vidya Therapeutics, Inc., priority 2020, dated 2025) one finds IC50 data, which are given here for 22 compounds.

Experiment [1] has as its system BTK Activity in RAMOS B Cells. Briefly: Assay to determine BTK activity in RAMOS B cells (anti-IgM, FLIPR Calcium 6). The experiment is classed as cell-based. Conditions: EC80 anti-IgM, FLIPR calcium read. The method, then: On the day before assay, Ramos B cells were plated in plating medium (RPMI1640 medium containing 1% FBS and 1× pencillin-streptomycin). On the day of the assay, 2× dye solution was prepared following the manual of the FLIRP Calcium 6 Assay Kit: Dilute the dye with assay buffer (20 mM HEPES in 1×HBSS, pH7.4); Add probenecid to the final concentration of 5 mM; vortex vigorously for 1-2 minutes. Cells were collected by centrifuging, and the pellet was resuspended in plating medium. After counting, cells were resuspended at a density of 3×10^6/ml in plating medium. Equal volume of 2× dye solution was added to the cell suspension. Cells were then plated at 20 μl/well into a 384-well poly-D-lysine coated plate. Plate was centrifuged at 1000 rpm for 3 minutes and then incubated at 37° C. for 2 hours followed by an additional 15-minute incubation at 25° C. Compounds were prepared at 3× concentration in dilution buffer (20 mM HEPES and 0.1% BSA in 1×HBSS, pH 7.4). Serially diluted compound was transferred from source plate to a 384-well compound plate by using an Echo 550 (Labcyte). 20 μl/well compound dilution buffer was added to the compound plate and mixed on plate shaker for 2 mins. 4×EC80 of Anti-IgM (Jackson ImmunoResearch) was prepared in dilution buffer and 20 μl/well was added to a new 384-well compound plate. After 60 mins of incubation at 25° C. in the dark; cell plate, compound plate containing 4×EC80 of anti-IgM and FLIPR tips were placed into FLIPR (Molecular Devices). 10 ul/well of 4×EC80 anti-IgM was transferred to the cell plate by FLIPR. Plates were read for 160 sec with 1 sec interval.
With respect to Ramos activity, Table 9 lists activity as follows: • “A” denotes an IC50 of less than 10 nM; • “B” denotes an IC50 of from 10 nM to less than 100 nM; and • “C” denotes and IC50 of 100 nM or more.

For experiment [2], the target named is BTK (Homo sapiens, UniProt Q06187). The experiment in a line: Assay to determine activity against BTK (EZ reader, FLPeptide). Conditions: ATP (1 mM), BTK (2 nM), room temperature for 90 minutes. The experiment is classed as biochemical. Details: purchased Carna. Here is the method:
Solutions of compounds (test or control) in DMSO were prepared at the desired concentrations, and serially diluted to 11 concentrations by 3-fold dilution in 384pp-plate using TECAN EVO200. 20 nL of stock were transferred to 384 plate using Echo550. DMSO was used as vehicle control.
Two separate solutions were prepared—an ATP solution containing MgCl2 (10 mM), Brij-35 (0.01%), DTT (2 mM), BSA (0.05%), EGTA (1 mM), HEPE (pH7.5) (50 mM), FLPeptide (6 uM) and ATP (4 mM); and a BTK solution containing MgCl2 (10 mM), Brij-35 (0.01%), DTT (2 mM), BSA (0.05%), EGTA (1 mM), HEPE (pH7.5) (50 mM) and BTK (2.67 nM). […] (Note the final volume of each well was 20 uL containing MgCl2 (10 mM), Brij-35 (0.01%), DTT (2 mM), BSA (0.05%), EGTA (1 mM), HEPE (pH7.5) (50 mM), FLPeptide (1.5 uM), ATP (1 mM) and BTK (2 nM).
The plates were incubated at room temperature for 90 minutes and then stopping buffer added (75 uL, containing 0.5 M EDTA) to terminate the reaction. Samples from each well were analyzed using EZ reader. The % remaining activity was calculated using read conversion ratio (CR) according to the equation: […]
XLFit (equation 201) was used to calculate IC50s by floating both bottom and top.
With respect to BTK activity, Table 4 lists activity as follows: • “A” denotes an IC50 of less than 10 nM, • “B” denotes an IC50 of from 10 nM to less than 100 nM; and • “C” denotes and IC50 of 100 nM or more.

BTK, sequence (Q06187 whole entry): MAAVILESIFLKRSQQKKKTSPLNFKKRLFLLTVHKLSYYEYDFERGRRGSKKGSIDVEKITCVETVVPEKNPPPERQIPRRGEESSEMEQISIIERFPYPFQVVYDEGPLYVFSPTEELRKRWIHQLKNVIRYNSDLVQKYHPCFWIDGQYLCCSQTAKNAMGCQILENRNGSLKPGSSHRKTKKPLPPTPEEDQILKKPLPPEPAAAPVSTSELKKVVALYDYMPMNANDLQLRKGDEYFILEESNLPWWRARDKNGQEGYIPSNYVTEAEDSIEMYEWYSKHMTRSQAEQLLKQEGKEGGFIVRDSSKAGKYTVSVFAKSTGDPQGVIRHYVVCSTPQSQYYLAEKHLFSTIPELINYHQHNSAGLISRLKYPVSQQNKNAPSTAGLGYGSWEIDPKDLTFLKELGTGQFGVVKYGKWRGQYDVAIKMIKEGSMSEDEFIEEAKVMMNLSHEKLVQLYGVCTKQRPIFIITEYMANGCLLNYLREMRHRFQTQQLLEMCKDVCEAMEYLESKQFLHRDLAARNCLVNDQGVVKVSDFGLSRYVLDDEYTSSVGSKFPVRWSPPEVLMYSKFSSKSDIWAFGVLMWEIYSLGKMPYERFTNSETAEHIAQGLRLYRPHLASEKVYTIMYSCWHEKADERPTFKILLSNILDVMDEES

Take `C=CC(=O)N1Cc2cccc(-c3c(F)cc(C(N)=O)c4[nH]c(C)c(Cl)c34)c2C2(CC2)C1` (single isomer, unassigned) [Compound 24c]: the IC50 (as a rule, the concentration that gives 50% inhibition) in experiment [1] (Homo sapiens, Ramos) is at least 100 nM; in experiment [2] it was 10 to 100 nM.

Regarding `C=CC(=O)N1CCCc2c(cccc2-c2c(F)cc(C(N)=O)c3[nH]c(C)c(Cl)c23)C1` [Compound 25a, 4-(2-Acryloyl-2,3,4,5-tetrahydro-1H-benzo[c]azepin-6-yl)-3-chloro-5-fluoro-2-methyl-1H-indole-7-carboxamide], the concentration for half-maximal inhibition (IC50) lay within 10 to 100 nM in experiment [1] (Homo sapiens, Ramos) and 10 to 100 nM in experiment [2].

As to `C=CC(=O)N1CCc2c(cccc2-c2c(F)c(F)c(C(N)=O)c3[nH]c(C)c(C#N)c23)C1` [Compound 21e, 4-(2-acryloyl-1,2,3,4-tetrahydroisoquinolin-5-yl)-3-cyano-5,6-difluoro-2-methyl-1H-indole-7-carboxamide], the IC50 lay in the range of 10 to 100 nM in experiment [1] (Homo sapiens, Ramos) and 10 to 100 nM in experiment [2].

`C=CC(=O)N[C@H]1CN(c2c(F)cc(C(N)=O)c3[nH]c(C)c(C)c23)CC[C@@H]1F` [Compound 30, 4-((3S,4S)-3-acrylamido-4-fluoropiperidin-1-yl)-5-fluoro-2,3-dimethyl-1H-indole-7-carboxamide]: the half-inhibitory concentration (IC50) in experiment [1] (Homo sapiens, Ramos) fell in the range of 10 to 100 nM; in experiment [2], 10 to 100 nM.

With `CC#CC(=O)N1CCC=C(c2c(F)cc(C(N)=O)c3[nH]c(C)c(Cl)c23)C1` [Compound 19, 4-(1-(but-2-ynoyl)-1,2,5,6-tetrahydropyridin-3-yl)-3-chloro-5-fluoro-2-methyl-1H-indole-7-carboxamide], the IC50 is at least 100 nM in experiment [1] (Homo sapiens, Ramos) and at least 100 nM in experiment [2].

Regarding `C=CC(=O)N1Cc2cccc(-c3c(F)cc(C(N)=O)c4[nH]c(C)cc34)c2C2(CC2)C1` [Compound 24b, 4-(2′-acryloyl-2′,3′-dihydro-1′H-spiro[cyclopropane-1,4′-isoquinolin]-5′-yl)-5-fluoro-2-methyl-1H-indole-7-carboxamide], the IC50 in experiment [1] (Homo sapiens, Ramos) was at least 100 nM; in experiment [2], at least 100 nM.

As to `C=CC(=O)N1CCCC(c2c(F)c(F)c(C(N)=O)c3[nH]c(C)c(C#N)c23)C1` (centres unmarked) [Compound 10, 4-(1-acryloylpiperidin-3-yl)-3-cyano-5,6-difluoro-2-methyl-1H-indole-7-carboxamide], the IC50 in experiment [1] (Homo sapiens, Ramos) was in the range of 10 to 100 nM; in experiment [2], 10 to 100 nM.

As to `C=CC(=O)N1CCc2c(cccc2-c2c(F)cc(C(N)=O)c3[nH]c(C)c(Cl)c23)C1` (single isomer, unassigned) [Compound 20c], the IC50 in experiment [1] and in experiment [2] was at least 100 nM in each case.

As for `C=CC(=O)N1CCCC(c2c(F)c(F)c(C(N)=O)c3[nH]c(C)c(Cl)c23)C1` (centres unmarked) [Compound 3, 4-(1-acryloylpiperidin-3-yl)-3-chloro-5,6-difluoro-2-methyl-1H-indole-7-carboxamide], the IC50 was below 10 nM in experiment [1] (Homo sapiens, Ramos) and below 10 nM in experiment [2].

On to `C=CC(=O)N1CCc2c(-c3c(F)cc(C(N)=O)c4[nH]c(C)c(Cl)c34)cccc2[C@H]1C` (single isomer, unassigned) [Compound 22e], for which the IC50 in experiment [1] and in experiment [2] was below 10 nM throughout.

`C=CC(=O)N1CCc2c(cccc2-c2c(F)c(F)c(C(N)=O)c3[nH]c(C)c(Cl)c23)C1` (atropisomer, axis not shown) [Compound 21c, (S)-4-(2-acryloyl-1,2,3,4-tetrahydroisoquinolin-5-yl)-3-chloro-5,6-difluoro-2-methyl-1H-indole-7-carboxamide]: the IC50 in experiment [1] and in experiment [2] was at least 100 nM throughout.

Turning to `C=CC(=O)N1CCc2c(cccc2-c2c(F)cc(C(N)=O)c3[nH]c(C)c(C#N)c23)C1` (atropisomer, axis not shown) [Compound 20h, (S)-4-(2-acryloyl-1,2,3,4-tetrahydroisoquinolin-5-yl)-3-cyano-5-fluoro-2-methyl-1H-indole-7-carboxamide], the IC50 in experiment [1] and in experiment [2] was at least 100 nM in each case.

With `C=CC(=O)N1CCC[C@H](c2c(F)cc(C(N)=O)c3[nH]c(C)c(C(F)F)c23)C1` [Compound 11, (R)-4-(1-acryloylpiperidin-3-yl)-3-(difluoromethyl)-5-fluoro-2-methyl-1H-indole-7-carboxamide], the IC50 was at least 100 nM in experiment [1] (Homo sapiens, Ramos) and at least 100 nM in experiment [2].

In the case of `C=CC(=O)N1CC(F)CC(c2c(F)cc(C(N)=O)c3[nH]c(C)c(Cl)c23)C1` (centres unmarked) [Compound 9, 4-(1-acryloyl-5-fluoropiperidin-3-yl)-3-chloro-5-fluoro-2-methyl-1H-indole-7-carboxamide], the concentration for half-maximal inhibition (IC50) was below 10 nM in experiment [1] (Homo sapiens, Ramos) and below 10 nM in experiment [2].

Turning to `C=CC(=O)N1CCCc2c(cccc2-c2c(F)cc(C(N)=O)c3[nH]c(C)cc23)C1` [Compound 25b, 4-(2-acryloyl-2,3,4,5-tetrahydro-1H-benzo[c]azepin-6-yl)-5-fluoro-2-methyl-1H-indole-7-carboxamide], the IC50 is at least 100 nM in experiment [1] (Homo sapiens) and 10 to 100 nM in experiment [2].

`C=CC(=O)N[C@H]1C[C@@H](F)CN(c2c(F)cc(C(N)=O)c3[nH]c(C)c(C)c23)C1` [Compound 34, 4-((3S,5R)-3-acrylamido-5-fluoropiperidin-1-yl)-5-fluoro-2,3-dimethyl-1H-indole-7-carboxamide]: the IC50 in experiment [1] (Homo sapiens, Ramos) was at least 100 nM; in experiment [2], 10 to 100 nM.

In the case of `C=CC(=O)N1Cc2cccc(-c3c(F)cc(C(N)=O)c4[nH]c(C)c(Cl)c34)c2C2(CC2)C1` [Compound 24a, 4-(2′-Acryloyl-2′,3′-dihydro-1′H-spiro[cyclopropane-1,4′-isoquinolin]-5′-yl)-3-chloro-5-fluoro-2-methyl-1H-indole-7-carboxamide], the IC50 was at least 100 nM in experiment [1] (Homo sapiens, Ramos) and 10 to 100 nM in experiment [2].

In the case of `C=CC(=O)N1CCc2c(-c3c(F)cc(C(N)=O)c4[nH]c(C)c(Cl)c34)cccc2[C@@H]1C` (single isomer, unassigned) [Compound 22c], the IC50 in experiment [1] (Homo sapiens, Ramos) was at least 100 nM; in experiment [2], at least 100 nM.

In the case of `C=CC(=O)N1CCC[C@@H](c2c(F)cc(C(N)=O)c3[nH]c(C)c(C(F)F)c23)C1` [Compound 12, (S)-4-(1-acryloylpiperidin-3-yl)-3-(difluoromethyl)-5-fluoro-2-methyl-1H-indole-7-carboxamide], the half-inhibitory concentration (IC50) in experiment [1] (Homo sapiens, Ramos) was at least 100 nM; in experiment [2], at least 100 nM.

For the compound `C#CC(=O)N1CCc2c(cccc2-c2c(F)cc(C(N)=O)c3[nH]c(C)c(C)c23)C1` [Compound 20j, 5-fluoro-2,3-dimethyl-4-(2-propioloyl-1,2,3,4-tetrahydroisoquinolin-5-yl)-1H-indole-7-carboxamide], the IC50 in experiment [1] (Homo sapiens, Ramos) is 10 to 100 nM; in experiment [2] it was below 10 nM.

With `CC#CC(=O)N1CCC[C@H](c2c(F)cc(C(N)=O)c3[nH]c(C)c(Cl)c23)C1` [Compound 17, (R)-4-(1-(but-2-ynoyl)piperidin-3-yl)-3-chloro-5-fluoro-2-methyl-1H-indole-7-carboxamide], the IC50 was at least 100 nM in experiment [1] (Homo sapiens, Ramos) and at least 100 nM in experiment [2].

Take `C=CC(=O)N1CCc2c(cccc2-c2c(F)cc(C(N)=O)c3[nH]c(C)c(C#N)c23)C1` [Compound 20g, 4-(2-acryloyl-1,2,3,4-tetrahydroisoquinolin-5-yl)-3-cyano-5-fluoro-2-methyl-1H-indole-7-carboxamide]: the half-maximal inhibitory concentration (IC50) is 10 to 100 nM in experiment [1] and below 10 nM in experiment [2].
